# How the values were obtained:
# [1] = tested on: human colorectal cancer cell line (HT-29); test: Colony-forming ability, anticancer drug in combination with calcium lactate (6-well plates); type: cell-based; conditions: vs control
# Experimental: (§1) Human colorectal cancer cell line (HT-29) with the cell number of 1×10^3 cells were seeded into an RPMI1640 medium in each of 6-well plates. […]. Then, the colony-forming abilities of the cells were compared. In this case, a human colorectal cancer cell line (HT-29) untreated with any drug was used as a control group (FIGS. 46a and 46b).
# as §1, with “48a” for “46a”, “48b).” for “46b).”
# as §1, with “(FIG. 55).” for “(FIGS. 46a and 46b).”
# [2] = tested on: human lung cancer cell line (A549); test: as above; type: cell-based; conditions: vs control
# Experimental: Human breast cancer cell line (MCF-7) and a human lung cancer cell line (A549) with the cell number of 1×10^3 cells were seeded into an RPMI1640 medium in each of 6-well plates. […]. Then, the colony-forming abilities of the cells were compared. In this case, a human breast cancer cell line (MCF-7) and a human lung cancer cell line (A549) untreated with any drug were used as control groups (FIGS. 42a, 42b, 43a and 43b).
# as §1, with “lung” for “colorectal”, “(A549)” for “(HT-29)”, “44a” for “46a”, “44b).” for “46b).”
# as §1, with “lung” for “colorectal”, “(A549)” for “(HT-29)”, “47a” for “46a”, “47b).” for “46b).”
# as §1, with “lung” for “colorectal”, “(A549)” for “(HT-29)”, “49a” for “46a”, “49b).” for “46b).”
# as §1, with “lung” for “colorectal”, “(A549)” for “(HT-29)”, “50a” for “46a”, “50b).” for “46b).”
# as §1, with “lung” for “colorectal”, “(A549)” for “(HT-29)”, “51a” for “46a”, “51b).” for “46b).”
# [3] = tested on: human colorectal cancer cell lines (HT-29 and HCT-116); test: as above; type: cell-based; conditions: vs control
# Experimental: Human colorectal cancer cell lines (HT-29 and HCT-116) with the cell number of 1×10^3 cells were seeded into an RPMI1640 medium in each of 6-well plates. After one day, the medium was replaced with fresh medium and the cells were treated with 2.5 mM calcium lactate or 1 μM, 2.5 μM, and 5 μM Imatinib alone or treated with various concentrations (1 μM, 2.5 μM, and 5 μM) of Imatinib in combination with 2.5 mM calcium lactate. Then, the colony-forming abilities of the cells were compared. In this case, human colorectal cancer cell lines (HT-29 and HCT-116) untreated with any drug were used as control groups (FIGS. 38a, 38b, 39a and 39b).
# Human colorectal cancer cell lines (HT-29 and HCT-116) with the cell number of 1×10^3 cells were seeded into an RPMI1640 medium in each of 6-well plates. After one day, the medium was replaced with fresh medium and the cells were treated with 2.5 mM calcium lactate or 2.5 μM, 5 μM, and 10 μM 5-FU alone or treated with various concentrations (2.5 μM, 5 μM, and 10 μM) of 5-FU in combination with 2.5 mM calcium lactate. Then, the colony-forming abilities of the cells were compared. In this case, human colorectal cancer cell lines (HT-29 and HCT-116) untreated with any drug were used as control groups (FIGS. 40a, 40 b, 41a and 41b).
# [4] = tested on: human kidney cancer cell line (Caki-1); test: as above; type: cell-based; conditions: 0.3, 0.5, 1 nM Everolimus alone, vs control
# Experimental: Human kidney cancer cell line (Caki-1) with the cell number of 1×10^3 cells were seeded into an RPMI1640 medium in each of 6-well plates. After one day, the medium was replaced with fresh medium and the cells were treated with 0.3 nM, 0.5 nM, and 1 nM Everolimus alone or treated with various concentrations (0.3 nM, 0.5 nM, and 1 nM) of Everolimus in combination with 2.5 mM calcium lactate. Then, the colony-forming abilities of the cells were compared. In this case, a human kidney cancer cell line (Caki-1) untreated with any drug was used as a control group (FIGS. 53a and 53b).
# [5] = tested on: human breast cancer cell line (MCF-7); test: as above; type: cell-based; conditions: vs control
# Experimental: Human breast cancer cell line (MCF-7) and a human lung cancer cell line (A549) with the cell number of 1×10^3 cells were seeded into an RPMI1640 medium in each of 6-well plates. […] Then, the colony-forming abilities of the cells were compared. In this case, a human breast cancer cell line (MCF-7) and a human lung cancer cell line (A549) untreated with any drug were used as control groups (FIGS. 42a, 42b, 43a and 43b).
# Human breast cancer cell line (MCF-7) with the cell number of 1×10^3 cells were seeded into an RPMI1640 medium in each of 6-well plates. After one day, the medium was replaced with fresh medium and the cells were treated with 2.5 mM calcium lactate or 2 μM, 4 μM, and 8 μM Lapatinib alone or treated with various concentrations (2 μM, 4 μM, and 8 μM) of Lapatinib in combination with 2.5 mM calcium lactate. Then, the colony-forming abilities of the cells were compared. In this case, a human breast cancer cell line (MCF-7) untreated with any drug was used as a control group (FIGS. 52a and 52b).
# [6] = tested on: human vascular endothelial cell (HUVEC); test: Tube formation of HUVEC in culture supernatants of treated cancer cell lines; type: cell-based; conditions: HUVEC treated with Sulforaphane (comparison group)
# Source text: A human vascular endothelial cell (HUVEC) was inoculated into each of the obtained culture supernatant and cultured to analyze a conformational change of cells (FIG. 17). In this case, an HUVEC cultured using the culture medium of a cancer cell line cultured without treating with calcium lactate was used as a control group, and an HUVEC cultured with the treatment with Sulforaphane, which is a growth inhibitor of an HUVEC, was used as a comparison group.
# [7] = tested on: human colorectal cancer cell line HCT-116; conditions: 5 mM CA individually, 10 days
# [8] = tested on: human liver cancer cell line (Hep3B); test: Colony-forming ability, anticancer drug in combination with calcium lactate (6-well plates); type: cell-based; conditions: 1, 2.5, 5 μM Sorafenib alone, vs control
# Experimental: Human liver cancer cell line (Hep3B) with the cell number of 1×10^3 cells were seeded into an RPMI1640 medium in each of 6-well plates. After one day, the medium was replaced with fresh medium and the cells were treated with 2.5 mM calcium lactate or 1 μM, 2.5 μM, and 5 μM Sorafenib alone or treated with various concentrations (1 μM, 2.5 μM, and 5 μM) of Sorafenib in combination with 2.5 mM calcium lactate. Then, the colony-forming abilities of the cells were compared. In this case, a human liver cancer cell line (Hep3B) untreated with any drug was used as a control group (FIGS. 45a and 45b).
# cancer cell = test: Dissociation of metal lactate salts to lactate in a cancer cell; type: cell-based
# [9] = 0.63, 1.3, 2.5 nM Paclitaxel alone
compound,measurement,setting,value
CCc1c2c(nc3ccc(OC(=O)N4CCC(N5CCCCC5)CC4)cc13)-c1cc3c(c(=O)n1C2)COC(=O)[C@]3(O)CC [Irinotecan],colony-forming ability,"[1]; 0.5, 1, 2 μM Irinotecan alone",suppressed
CC(=O)O[C@@]12CO[C@@H]1C[C@H](O)[C@@]1(C)C(=O)[C@H](O)C3=C(C)[C@@H](OC(=O)[C@H](O)[C@@H](NC(=O)OC(C)(C)C)c4ccccc4)C[C@@](O)([C@@H](OC(=O)c4ccccc4)[C@H]21)C3(C)C [Docetaxel],colony-forming ability,"[2]; 0.6, 1.3, 2.5 nM Docetaxel alone",suppressed
Cc1ccc(NC(=O)c2ccc(CN3CCN(C)CC3)cc2)cc1Nc1nccc(-c2cccnc2)n1 [Imatinib],colony-forming ability,"[3]; 1, 2.5, 5 μM Imatinib alone",suppressed
"CO[C@H]1C[C@@H]2CC[C@@H](C)[C@@](O)(O2)C(=O)C(=O)N2CCCC[C@H]2C(=O)O[C@H]([C@H](C)C[C@@H]2CC[C@@H](OCCO)[C@H](OC)C2)CC(=O)[C@H](C)/C=C(\C)[C@@H](O)[C@@H](OC)C(=O)[C@H](C)C[C@H](C)/C=C/C=C/C=C/1C [Everolimus, reference compound]",colony-forming ability,[4],suppressed
CS(=O)(=O)CCNCc1ccc(-c2ccc3ncnc(Nc4ccc(OCc5cccc(F)c5)c(Cl)c4)c3c2)o1 [Lapatinib],colony-forming ability,"[5]; 2, 4, 8 μM Lapatinib alone",suppressed
C#Cc1cccc(Nc2ncnc3cc(OCCOC)c(OCCOC)cc23)c1 [Erlotinib],colony-forming ability,"[2]; 0.5, 1, 2 μM Erlotinib alone",suppressed
"C[S+]([O-])CCCCN=C=S (stereo not drawn) [Sulforaphane, reference compound]",tube-forming ability of HUVEC,[6],reduced tube-forming ability
CN(Cc1cnc2nc(N)nc(N)c2n1)c1ccc(C(=O)N[C@@H](CCC(=O)O)C(=O)O)cc1 [Methotrexate],colony-forming ability,"[2]; 5, 10, 20 nM Methotrexate alone",suppressed
O=c1[nH]cc(F)c(=O)[nH]1 [5-FU],colony-forming ability,"[3]; 2.5, 5, 10 μM 5-FU alone",suppressed
"O=C(O)C=Cc1ccccc1 [CA, cinnamic acid, reference compound]",survival rate,[7],about 60%
N.N.O=C([O-])C1(C(=O)[O-])CCC1.[Pt+2] [Carboplatin],colony-forming ability,"[2]; 2.5, 5, 10 μM Carboplatin alone",suppressed
"CNC(=O)c1cc(Oc2ccc(NC(=O)Nc3ccc(Cl)c(C(F)(F)F)c3)cc2)ccn1 [Sorafenib, reference compound]",colony-forming ability,[8],suppressed
CC(O)C(=O)[O-].[K+] (stereo not drawn) [potassium lactate],dissociation to lactate in a cancer cell,cancer cell,can be dissociated to lactate
CC(O)C(=O)[O-].[Na+] (stereo not drawn) [sodium lactate],dissociation to lactate in a cancer cell,cancer cell,can be dissociated to lactate
COc1cc2ncnc(Nc3ccc(F)c(Cl)c3)c2cc1OCCCN1CCOCC1 [Gefitinib],colony-forming ability,"[2]; 1.3, 2.5, 5 μM Gefitinib alone",suppressed
O=C1[O][Pt]2([NH][C@@H]3CCCC[C@H]3[NH]2)[O]C1=O [Oxaliplatin],colony-forming ability,"[1]; 1.3, 2.5, 5 μM Oxaliplatin alone",suppressed
CC(=O)O[C@H]1C(=O)[C@@]2(C)[C@H]([C@H](OC(=O)c3ccccc3)[C@]3(O)C[C@H](OC(=O)[C@H](O)[C@@H](NC(=O)c4ccccc4)c4ccccc4)C(C)=C1C3(C)C)[C@]1(OC(C)=O)CO[C@@H]1C[C@@H]2O [Paclitaxel],colony-forming ability,[5]; [9],suppressed
same,colony-forming ability,[2]; [9],suppressed

# Reference: patent publication US11413261B2, “Pharmaceutical composition for treating cancer comprising lactate metal salt” (METIMEDI PHARMACEUTICALS CO., LTD, priority 2014, dated 2022)
